# Source: ChEMBL document CHEMBL5316329, “Structure-Based Optimization of 2,4,5-Trisubstituted Pyrimidines as Potent HIV-1 Non-Nucleoside Reverse Transcriptase Inhibitors: Exploiting the Tolerant Regions of the Non-Nucleoside Reverse Transcriptase Inhibitors' Binding Pocket” (J Med Chem, 2023)
# pEC50, pIC50: −log10 of the molar value.
# Test system: Human immunodeficiency virus 1
# Assay: Antiviral activity against wild-type HIV-1 IIIB infected in human MT4 cells assessed as virus-induced cytopathicity treated for 5 days by MTT assay
# Type: functional, organism-based
# Settings: Human immunodeficiency virus 1, IIIB, MT4, 120 h
row,SMILES,pEC50
1,Cc1cc(/C=C/C#N)cc(C)c1Oc1nc(NC2CCN(Cc3ccc(S(N)(=O)=O)cc3)CC2)ncc1-c1ccc(O)cc1,8.42
2,Cc1cc(/C=C/C#N)cc(C)c1Oc1nc(NC2CCN(Cc3ccc(S(C)(=O)=O)cc3)CC2)ncc1-c1ccc(N)cc1,8.35
3,Cc1cc(/C=C/C#N)cc(C)c1Oc1nc(NC2CCN(Cc3ccc(S(C)(=O)=O)cc3)CC2)ncc1-c1ccc(F)cc1,8.29
4,Cc1cc(/C=C/C#N)cc(C)c1Cc1nc(NC2CCN(Cc3ccc(S(N)(=O)=O)cc3)CC2)ncc1-c1cncnc1,8.27
5,Cc1cc(/C=C/C#N)cc(C)c1Oc1nc(NC2CCN(Cc3ccc(C(N)=O)cc3)CC2)ncc1-c1ccc2c(c1)OCO2,8.38
6,Cc1cc(/C=C/C#N)cc(C)c1Oc1nc(NC2CCN(Cc3ccc(S(N)(=O)=O)cc3)CC2)ncc1-c1ccccc1O,8.04

# Test system: Human immunodeficiency virus 1
# Assay: Antiviral activity against NNRTI-resistant HIV-1 RES056 infected in human MT4 cells assessed as virus-induced cytopathicity treated for 5 days by MTT assay
# Type: functional, organism-based
# Settings: Human immunodeficiency virus 1, RES056, MT4, 120 h
row,SMILES,pEC50
1,Cc1cc(/C=C/C#N)cc(C)c1Oc1nc(NC2CCN(Cc3ccc(S(N)(=O)=O)cc3)CC2)ncc1-c1ccc(O)cc1,7.58
2,Cc1cc(/C=C/C#N)cc(C)c1Oc1nc(NC2CCN(Cc3ccc(S(C)(=O)=O)cc3)CC2)ncc1-c1ccc(N)cc1,7.47
3,Cc1cc(/C=C/C#N)cc(C)c1Oc1nc(NC2CCN(Cc3ccc(S(C)(=O)=O)cc3)CC2)ncc1-c1ccc(F)cc1,7.00
4,Cc1cc(/C=C/C#N)cc(C)c1Cc1nc(NC2CCN(Cc3ccc(S(N)(=O)=O)cc3)CC2)ncc1-c1cncnc1,7.42
5,Cc1cc(/C=C/C#N)cc(C)c1Oc1nc(NC2CCN(Cc3ccc(C(N)=O)cc3)CC2)ncc1-c1ccc2c(c1)OCO2,7.42
6,Cc1cc(/C=C/C#N)cc(C)c1Oc1nc(NC2CCN(Cc3ccc(S(N)(=O)=O)cc3)CC2)ncc1-c1ccccc1O,6.76

# Test system: not listed separately
# Assay: Cytotoxicity against human MT4 cells assessed as reduction in cell viability treated for 5 days by MTT assay
# Type: toxicity, cell-based
# Settings: time 5 day
row,SMILES,CC50 at 120 h [nM]
1,Cc1cc(/C=C/C#N)cc(C)c1Oc1nc(NC2CCN(Cc3ccc(S(N)(=O)=O)cc3)CC2)ncc1-c1ccc(O)cc1,4440
2,Cc1cc(/C=C/C#N)cc(C)c1Oc1nc(NC2CCN(Cc3ccc(S(C)(=O)=O)cc3)CC2)ncc1-c1ccc(N)cc1,6740
3,Cc1cc(/C=C/C#N)cc(C)c1Oc1nc(NC2CCN(Cc3ccc(S(C)(=O)=O)cc3)CC2)ncc1-c1ccc(F)cc1,4340
4,Cc1cc(/C=C/C#N)cc(C)c1Cc1nc(NC2CCN(Cc3ccc(S(N)(=O)=O)cc3)CC2)ncc1-c1cncnc1,11300
5,Cc1cc(/C=C/C#N)cc(C)c1Oc1nc(NC2CCN(Cc3ccc(C(N)=O)cc3)CC2)ncc1-c1ccc2c(c1)OCO2,5320
6,Cc1cc(/C=C/C#N)cc(C)c1Oc1nc(NC2CCN(Cc3ccc(S(N)(=O)=O)cc3)CC2)ncc1-c1ccccc1O,12500

# Test system: not listed separately
# Assay: Selectivity index, ratio of CC50 for human MT4 cells to EC50 for wild-type HIV-1 IIIB infected in human MT4 cells
# Type: toxicity, cell-based
# Settings: read-out: Selectivity Index
row,SMILES,selectivity ratio
1,Cc1cc(/C=C/C#N)cc(C)c1Oc1nc(NC2CCN(Cc3ccc(S(N)(=O)=O)cc3)CC2)ncc1-c1ccc(O)cc1,1160
2,Cc1cc(/C=C/C#N)cc(C)c1Oc1nc(NC2CCN(Cc3ccc(S(C)(=O)=O)cc3)CC2)ncc1-c1ccc(N)cc1,1510
3,Cc1cc(/C=C/C#N)cc(C)c1Oc1nc(NC2CCN(Cc3ccc(S(C)(=O)=O)cc3)CC2)ncc1-c1ccc(F)cc1,853
4,Cc1cc(/C=C/C#N)cc(C)c1Cc1nc(NC2CCN(Cc3ccc(S(N)(=O)=O)cc3)CC2)ncc1-c1cncnc1,2090
5,Cc1cc(/C=C/C#N)cc(C)c1Oc1nc(NC2CCN(Cc3ccc(C(N)=O)cc3)CC2)ncc1-c1ccc2c(c1)OCO2,1280
6,Cc1cc(/C=C/C#N)cc(C)c1Oc1nc(NC2CCN(Cc3ccc(S(N)(=O)=O)cc3)CC2)ncc1-c1ccccc1O,1370

# Test system: not listed separately
# Assay: Selectivity index, ratio of CC50 for human MT4 cells to EC50 for NNRTI-resistant HIV-1 RES056 infected in human MT4 cells
# Type: toxicity, cell-based
# Settings: read-out: Selectivity Index
row,SMILES,selectivity ratio
1,Cc1cc(/C=C/C#N)cc(C)c1Oc1nc(NC2CCN(Cc3ccc(S(N)(=O)=O)cc3)CC2)ncc1-c1ccc(O)cc1,170
2,Cc1cc(/C=C/C#N)cc(C)c1Oc1nc(NC2CCN(Cc3ccc(S(C)(=O)=O)cc3)CC2)ncc1-c1ccc(N)cc1,198
3,Cc1cc(/C=C/C#N)cc(C)c1Oc1nc(NC2CCN(Cc3ccc(S(C)(=O)=O)cc3)CC2)ncc1-c1ccc(F)cc1,43
4,Cc1cc(/C=C/C#N)cc(C)c1Cc1nc(NC2CCN(Cc3ccc(S(N)(=O)=O)cc3)CC2)ncc1-c1cncnc1,299
5,Cc1cc(/C=C/C#N)cc(C)c1Oc1nc(NC2CCN(Cc3ccc(C(N)=O)cc3)CC2)ncc1-c1ccc2c(c1)OCO2,139
6,Cc1cc(/C=C/C#N)cc(C)c1Oc1nc(NC2CCN(Cc3ccc(S(N)(=O)=O)cc3)CC2)ncc1-c1ccccc1O,72

# Target: Human immunodeficiency virus type 1 reverse transcriptase (Human immunodeficiency virus 1, UniProt Q72547)
# Assay: Inhibition of wild-type HIV-1 reverse transcriptase assessed as inhibition of biotin-dUTP incorporation
# Settings: not given
row,SMILES,pIC50
1,Cc1cc(/C=C/C#N)cc(C)c1Oc1nc(NC2CCN(Cc3ccc(S(N)(=O)=O)cc3)CC2)ncc1-c1ccc(O)cc1,7.04
2,Cc1cc(/C=C/C#N)cc(C)c1Oc1nc(NC2CCN(Cc3ccc(S(C)(=O)=O)cc3)CC2)ncc1-c1ccc(N)cc1,6.80
3,Cc1cc(/C=C/C#N)cc(C)c1Oc1nc(NC2CCN(Cc3ccc(S(C)(=O)=O)cc3)CC2)ncc1-c1ccc(F)cc1,6.84
4,Cc1cc(/C=C/C#N)cc(C)c1Cc1nc(NC2CCN(Cc3ccc(S(N)(=O)=O)cc3)CC2)ncc1-c1cncnc1,6.93
5,Cc1cc(/C=C/C#N)cc(C)c1Oc1nc(NC2CCN(Cc3ccc(C(N)=O)cc3)CC2)ncc1-c1ccc2c(c1)OCO2,6.96
6,Cc1cc(/C=C/C#N)cc(C)c1Oc1nc(NC2CCN(Cc3ccc(S(N)(=O)=O)cc3)CC2)ncc1-c1ccccc1O,6.69

# Test system: Human immunodeficiency virus 1
# Assay: Antiviral activity against HIV-1 harboring L100I mutant infected in human MT4 cells assessed as virus-induced cytopathicity treated for 5 days by MTT assay
# Type: functional, organism-based
# Settings: Human immunodeficiency virus 1, MT4, 120 h; read-out: EC50
row,SMILES,pEC50
1,Cc1cc(/C=C/C#N)cc(C)c1Oc1nc(NC2CCN(Cc3ccc(S(N)(=O)=O)cc3)CC2)ncc1-c1ccc(O)cc1,8.43
2,Cc1cc(/C=C/C#N)cc(C)c1Oc1nc(NC2CCN(Cc3ccc(S(C)(=O)=O)cc3)CC2)ncc1-c1ccc(N)cc1,8.33
3,Cc1cc(/C=C/C#N)cc(C)c1Cc1nc(NC2CCN(Cc3ccc(S(N)(=O)=O)cc3)CC2)ncc1-c1cncnc1,8.34
4,Cc1cc(/C=C/C#N)cc(C)c1Oc1nc(NC2CCN(Cc3ccc(C(N)=O)cc3)CC2)ncc1-c1ccc2c(c1)OCO2,8.09

# Test system: Human immunodeficiency virus 1
# Assay: Antiviral activity against HIV-1 harboring K103N mutant infected in human MT4 cells assessed as virus-induced cytopathicity treated for 5 days by MTT assay
# Type: functional, organism-based
# Settings: Human immunodeficiency virus 1, MT4, 120 h; read-out: EC50
row,SMILES,pEC50
1,Cc1cc(/C=C/C#N)cc(C)c1Oc1nc(NC2CCN(Cc3ccc(S(N)(=O)=O)cc3)CC2)ncc1-c1ccc(O)cc1,8.38
2,Cc1cc(/C=C/C#N)cc(C)c1Oc1nc(NC2CCN(Cc3ccc(S(C)(=O)=O)cc3)CC2)ncc1-c1ccc(N)cc1,8.31
3,Cc1cc(/C=C/C#N)cc(C)c1Cc1nc(NC2CCN(Cc3ccc(S(N)(=O)=O)cc3)CC2)ncc1-c1cncnc1,8.30
4,Cc1cc(/C=C/C#N)cc(C)c1Oc1nc(NC2CCN(Cc3ccc(C(N)=O)cc3)CC2)ncc1-c1ccc2c(c1)OCO2,8.25

# Test system: Human immunodeficiency virus 1
# Assay: Antiviral activity against HIV-1 harboring Y181C mutant infected in human MT4 cells assessed as virus-induced cytopathicity treated for 5 days by MTT assay
# Type: functional, organism-based
# Settings: Human immunodeficiency virus 1, MT4, 120 h; read-out: EC50
row,SMILES,pEC50
1,Cc1cc(/C=C/C#N)cc(C)c1Oc1nc(NC2CCN(Cc3ccc(S(N)(=O)=O)cc3)CC2)ncc1-c1ccc(O)cc1,8.11
2,Cc1cc(/C=C/C#N)cc(C)c1Oc1nc(NC2CCN(Cc3ccc(S(C)(=O)=O)cc3)CC2)ncc1-c1ccc(N)cc1,8.09
3,Cc1cc(/C=C/C#N)cc(C)c1Cc1nc(NC2CCN(Cc3ccc(S(N)(=O)=O)cc3)CC2)ncc1-c1cncnc1,8.09
4,Cc1cc(/C=C/C#N)cc(C)c1Oc1nc(NC2CCN(Cc3ccc(C(N)=O)cc3)CC2)ncc1-c1ccc2c(c1)OCO2,8.03

# Test system: Human immunodeficiency virus 1
# Assay: Antiviral activity against HIV-1 harboring Y188L mutant infected in human MT4 cells assessed as virus-induced cytopathicity treated for 5 days by MTT assay
# Type: functional, organism-based
# Settings: Human immunodeficiency virus 1, MT4, 120 h; read-out: EC50
row,SMILES,pEC50
1,Cc1cc(/C=C/C#N)cc(C)c1Oc1nc(NC2CCN(Cc3ccc(S(N)(=O)=O)cc3)CC2)ncc1-c1ccc(O)cc1,7.50
2,Cc1cc(/C=C/C#N)cc(C)c1Oc1nc(NC2CCN(Cc3ccc(S(C)(=O)=O)cc3)CC2)ncc1-c1ccc(N)cc1,7.48
3,Cc1cc(/C=C/C#N)cc(C)c1Cc1nc(NC2CCN(Cc3ccc(S(N)(=O)=O)cc3)CC2)ncc1-c1cncnc1,7.38
4,Cc1cc(/C=C/C#N)cc(C)c1Oc1nc(NC2CCN(Cc3ccc(C(N)=O)cc3)CC2)ncc1-c1ccc2c(c1)OCO2,7.24

# Test system: Human immunodeficiency virus 1
# Assay: Antiviral activity against HIV-1 E138K mutant infected in human MT4 cells assessed as virus-induced cytopathicity treated for 5 days by MTT assay
# Type: functional, organism-based
# Settings: Human immunodeficiency virus 1, MT4, 120 h; read-out: EC50
row,SMILES,pEC50
1,Cc1cc(/C=C/C#N)cc(C)c1Oc1nc(NC2CCN(Cc3ccc(S(N)(=O)=O)cc3)CC2)ncc1-c1ccc(O)cc1,8.12
2,Cc1cc(/C=C/C#N)cc(C)c1Oc1nc(NC2CCN(Cc3ccc(S(C)(=O)=O)cc3)CC2)ncc1-c1ccc(N)cc1,8.13
3,Cc1cc(/C=C/C#N)cc(C)c1Cc1nc(NC2CCN(Cc3ccc(S(N)(=O)=O)cc3)CC2)ncc1-c1cncnc1,7.87
4,Cc1cc(/C=C/C#N)cc(C)c1Oc1nc(NC2CCN(Cc3ccc(C(N)=O)cc3)CC2)ncc1-c1ccc2c(c1)OCO2,7.71

# Test system: Human immunodeficiency virus 1
# Assay: Antiviral activity against HIV-1 F227L/V106A mutant infected in human MT4 cells assessed as virus-induced cytopathicity treated for 5 days by MTT assay
# Type: functional, organism-based
# Settings: Human immunodeficiency virus 1, MT4, 120 h; read-out: EC50
row,SMILES,pEC50
1,Cc1cc(/C=C/C#N)cc(C)c1Oc1nc(NC2CCN(Cc3ccc(S(N)(=O)=O)cc3)CC2)ncc1-c1ccc(O)cc1,7.90
2,Cc1cc(/C=C/C#N)cc(C)c1Oc1nc(NC2CCN(Cc3ccc(S(C)(=O)=O)cc3)CC2)ncc1-c1ccc(N)cc1,8.11
3,Cc1cc(/C=C/C#N)cc(C)c1Cc1nc(NC2CCN(Cc3ccc(S(N)(=O)=O)cc3)CC2)ncc1-c1cncnc1,7.82
4,Cc1cc(/C=C/C#N)cc(C)c1Oc1nc(NC2CCN(Cc3ccc(C(N)=O)cc3)CC2)ncc1-c1ccc2c(c1)OCO2,7.33
